In patent publication EP0906294B1 (WARNER-LAMBERT COMPANY, priority 1996, dated 1997):
Where two headings read alike, the source gives them in different places.

Assays:
[1] = target: T1, human recombinant dopamine D4.2 receptor subtype (Homo sapiens, UniProt P21917, DEL265-296); assay: Receptor binding assay, [3H]spiperone competition, D4.2; conditions: for D2/D4 Ratio: ratio of D2 Ki to D4 Ki
T1 sequence (P21917 with tags, fused parts or gaps DEL265-296): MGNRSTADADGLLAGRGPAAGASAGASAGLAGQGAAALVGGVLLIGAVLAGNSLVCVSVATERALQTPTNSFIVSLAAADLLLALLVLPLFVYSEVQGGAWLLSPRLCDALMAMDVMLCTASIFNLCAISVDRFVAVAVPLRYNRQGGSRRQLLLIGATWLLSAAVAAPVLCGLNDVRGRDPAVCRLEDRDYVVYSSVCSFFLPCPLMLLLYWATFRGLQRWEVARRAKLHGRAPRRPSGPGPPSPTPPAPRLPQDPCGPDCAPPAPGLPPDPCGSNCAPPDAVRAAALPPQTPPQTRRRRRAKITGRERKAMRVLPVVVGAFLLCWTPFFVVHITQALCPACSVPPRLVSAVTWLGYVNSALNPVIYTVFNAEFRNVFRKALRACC
Method: (§1) The D2 receptor cDNA was subcloned into an expression vector, pRc/CMV. The plasmids were transfected by electroporation into CHO K1 cells. A single stable transfectant, resistant to the antibiotic G418, was isolated and selected for use in the binding studies.
(§2) Cells were grown until confluent, after which growth medium was removed and replaced with 0.02% ethylene diamine tetracetate (EDTA) in a phosphate-buffered saline solution (Sigma Chemical Co., St. Louis, Missouri) and scraped from the flasks. The cells were centrifuged at about 1000 × g for 10 minutes at […] and then resuspended in TEM buffer (25 mM Tris-HCl, pH 7.4, 5 mM EDTA, and 6 mM MgCl2) for D2 or the D4.2 buffer (50 mM Tris-HCl, pH 7.4, 5 mM EDTA, 1.5 mM CaCl2, 5 mM KCl, and 120 mM NaCl) and homogenized. The membranes were pelleted by centrifugation at 20,000 × g at […] for 20 minutes. Then the pellets were resuspended in appropriate buffer at 1 mL/flask and stored at -70°C until used in the receptor binding assay.
(§3) After 60 minutes incubation at 25°C, the incubations were terminated by rapid filtration through Whatmann GF/B glass fibre filters (soaked for 1 hour in 0.5% polyethylenimine) on a -cell harvester, with three washes of 1 mL ice-cold buffer. Individual filter disks containing the bound ligand were placed in counting vials with 4 mL of scintillation fluid (Ready Gel, Beckman Instrument Inc., Fullerton, California) and then counted in a Beckman LS-6800 liquid scintillation counter at an efficiency of 45%. Nonspecific binding was defined in presence of […] of haloperidol.
(§4) Saturation and competition binding data were analyzed using an iterative nonlinear least-square curve-fitting Ligand program. […] Experimental compounds were made up as stock solutions in dimethyl sulfoxide (DMSO). […] Each observation was carried out in triplicate. To allow these calculations, Ki values were measured for the interaction of various ligands with the receptor. […]

[2] = target: human dopamine D2 (Long form) receptors (Homo sapiens, UniProt P14416); assay: Receptor binding assay, [3H]spiperone competition, D2
human dopamine D2 (Long form) receptors, sequence (P14416 whole entry): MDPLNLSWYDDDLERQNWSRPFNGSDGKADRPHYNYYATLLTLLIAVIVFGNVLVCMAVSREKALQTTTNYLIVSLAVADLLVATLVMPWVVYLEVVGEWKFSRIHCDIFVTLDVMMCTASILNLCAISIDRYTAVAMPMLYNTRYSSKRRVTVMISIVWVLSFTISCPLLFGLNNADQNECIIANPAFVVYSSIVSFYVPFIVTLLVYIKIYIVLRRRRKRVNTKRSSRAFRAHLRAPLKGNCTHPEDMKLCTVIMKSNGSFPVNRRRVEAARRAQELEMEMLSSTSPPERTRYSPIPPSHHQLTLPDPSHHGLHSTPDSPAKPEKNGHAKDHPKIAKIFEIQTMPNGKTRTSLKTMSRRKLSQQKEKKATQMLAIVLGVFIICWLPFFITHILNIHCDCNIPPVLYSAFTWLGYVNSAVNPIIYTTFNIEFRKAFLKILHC
Method: as §1, §2, §3, §4

[3] = CHO K1 cell membranes, 0.2 nM [3H]spiperone, 60 minutes at 25°C, apparent Ki from IC50 by Cheng and Prusoff, read-out: D4 (Ki)
[4] = CHO K1 cell membranes, 0.2 nM [3H]spiperone, 60 minutes at 25°C, apparent Ki from IC50 by Cheng and Prusoff

| Compound | D2/D4 Ratio [1] | Ki ([1]; read-out: D4 (Ki)) [nM] | Ki [2, 4] [nM] | other results |
| --- | --- | --- | --- | --- |
| O=C1COc2cc(CN3CCN(c4ccc(Cl)cc4)CC3)ccc2N1 [Example 35, 7-[4-(4-Chloro-phenyl)-piperazin-1-ylmethyl]-4H-benzo[1,4]oxazin-3-one] | 132.5 | – | – | Ki [1]: 4.68 nM; Ki [2]: 620 nM |
| O=C1COc2ccc(CN3CCN(c4ccc(C(F)(F)F)cc4)CC3)cc2N1 [Example 31, 6-[4-(4-Trifluoromethyl-phenyl)-piperazin-l-ylmethyl] -4H-benzo[1,4]oxazin-3-one] | – | – | – | Ki [1, 3]: 173 nM |
| COc1ccc(C2CCN(Cc3ccc4c(c3)NC(=O)CO4)CC2)cc1 [Example 37, 6-[4-(4-Methoxy-phenyl) -piperidin-1-ylmethyl]-4H-benzo[1,4]oxazin-3-one] | – | – | 698 | – |
| COc1ccc(C2CCN(Cc3ccc4c(c3)OCC(=O)N4)CC2)cc1 [Example 38, 7-[4-(4-Methoxy-phenyl)-piperidin-1-ylmethyl]-4H-benzo[1,4]oxazin-3-one] | 168.1 | 6.7 | 1130 | – |
| Cc1ccc(N2CCN(Cc3ccc4c(c3)OCC(=O)N4)CC2)cc1C [Example 14, 7-[4-(3,4-dimethyl-phenyl)-piperazin-1-ylmethyl]-4H-benzo[1,4]oxazine-3-one] | – | – | 346 | – |
| Cc1ccc(C2CCN(Cc3ccc4c(c3)NC(=O)CO4)CC2)cc1 [Example 16, 6-(4-p-tolyl-piperidin-1-ylmethyl)-4H-benxo[1,4]oxazin-3-one] | – | – | – | Ki [1, 3]: 2.84 nM |
| Cc1ccc(C2CCN(Cc3ccc4c(c3)OCC(=O)N4)CC2)cc1C [Example 36, 7-[4-(3,4-Dimethyl-phenyl)-piperidin-1-ylmethyl]-4H-benzo[1,4]oxazin-3-one] | – | 2.61 | 610 | – |
| Cc1ccc(C2CCN(Cc3ccc4c(c3)OCC(=O)N4)CC2)cc1 [Example 41, 7-(4-p-Tolyl-piperidin-1-ylmethyl)-4H-benzo[1,4]oxazin-3-one] | 110.5 | 2.6 | 287 | – |

Second part, led by results:

| D2/D4 Ratio [1] | Ki ([1]; read-out: D4 (Ki)) [nM] | Ki [2, 4] [nM] | Compound | other results |
| --- | --- | --- | --- | --- |
| – | 6.09 | 129 | O=C1COc2cc(CN3CCN(c4ccccc4)CC3)ccc2N1 [Example 13, 7-(4-phenyl-piperazin-1-ylmethyl)-4H-benzo[1,4]oxazine-3-one] | – |
| – | 62.5 | – | O=C1COc2ccc(CN3CCN(c4ccc(Cl)cc4)CC3)cc2N1 [Example 32, 6-[4-(4-Chloro-phenyl)-piperazin-1-ylmethyl]-4H-benzo [1,4]oxazin-3-one] | – |
| – | 18.3 | – | O=C1COc2ccc(CN3CCN(c4ccccc4)CC3)cc2N1 [Example 8, 6-[4-phenyl-piperazin-1-ylmethyl]-4H-benzo[1,4]oxazin-3-one] | – |
| – | 23.6 | – | NS(=O)(=O)c1ccc(N2CCN(Cc3ccc4c(c3)NC(=O)CO4)CC2)cc1 [Example 4, 4-[4-(3-oxo-3,4-dihydro-2H-benzo[1,4]-oxazin-6-ylmethyl)-piperazin-1-yl]-benzenesulfonamide] | – |
| 1176.5 | 5 | ≥ 5880 | COc1ccc(N2CCN(Cc3ccc4c(c3)OCC(=O)N4)CC2)cc1 [Example 34, 7-[4-(4-Methoxy-phenyl)-piperazin-1-ylmethyl]-4H-benzo[1,4]oxazin-3-one] | – |
